Measured values published in patent US7390870B2, “Immune-enhancing peptides” (Posco, priority 2001, dated 2008).
No end group written: not given here.

Key:
[1] = tested on: PC12 (rat adrenal pheochromocytoma); experiment: [Ca2+]i rise in PC12 cells (fura-2); assay type: cell-based; settings: FIG. 4A; 20 μM peptide
Method: (§1) The level of [Ca^2+]i was determined by Grynkiewicz's method using fura-2/AM (21). Briefly, prepared cells were incubated with 3 μM fura-2/AM at 37° C. for 50 minutes in a fresh serum-free RPMI 1640 medium under continuous stirring. 2×10^6 cells were aliquoted for each assay in Ca^2+-free Locke's solution (154 mM NaCl, 5.6 mM KCl1.2 mM MgCl2, 5 mM HEPES, pH 7.3, 10 mM glucose, and 0.2 mM EGTA). The fluorescence changes at the dual excitation wavelengths of 340 nm and 380 nm and the emission wavelength of 500 nm were measured, and the calibrated fluorescence ratio was translated into [Ca^2+]i.
(§2) From the fact that HFYLPM, MFYLPM, and HFYLPm stimulate human monocytes, effects of the peptides on other leukocytes such as neutrophils were evaluated. Prepared human primary monocytes, neutrophils, cultured HL60, Jurkat, U937, NIH3T3, 3Y1, 3T3L1, and PC12 cells were loaded with fura-2 and stimulated with effective concentrations of the three peptides (1 μM for monocyte and neutrophil; 10 μM for HL60 and Jurkat; 20 μM for U937, NIH3T3, 3Y1, 3T3L1, and PC12). The peak level of the [Ca^2+]i increase was recorded and superoxide generation was measured using cytochrome c reduction assay. The results are shown FIG. 4. The data of FIG. 4 are presented as means ±S.E. from at least three independent experiments.

[2] = tested on: human neutrophil; experiment: Chemotaxis assay, human neutrophils (multiwell chamber); assay type: cell-based; settings: similar concentrations as for monocyte migration
Method: Chemotaxis assays of the peptide were performed using multiwell chambers (Neuroprobe Inc., Gaithersburg, Md.) (20). Briefly, the prepared isolated human monocytes were suspended in RPMI at a concentration of 1×10^6 cells/ml of serum-free RPMI, and 25 □ of the suspension were placed onto the upper well of a 96-well chemotaxis chamber that was separated by a […] filter with a 5 □ pore size (3 □ diameter pores not coated with polyvinylpyrrolidone for neutrophils) from peptides or an fMLF-containing lower well. After incubation for 2 hours (90 minutes for neutrophils) at 37° C., non-migrated cells were removed by scraping them out, and cells that migrated across the filter were dehydrated, fixed, and stained with hematoxylin (Sigma, St. Louis, Mo.). The stained cells in five randomly chosen high power fields (HPF) (400×) in that well were then counted (21). The numbers of migrated cells were determined by counting them in a high power field (400×). For a checkboard analysis, cells were re-suspended in RPMI containing various concentrations of the peptide just before transferring them to the upper wells as described before (22).

[3] = tested on: differentiated HL60 cells; experiment: Superoxide generation in differentiated HL60 cells; assay type: cell-based, human; settings: similar concentrations as for the [Ca2+]i increase
Method: For initial screening of the PS-SPCLs, the superoxide anion generation of each peptide pool was evaluated by measuring reduction of cytochrome c using a microtiter 96 well plate ELISA reader (Bio-Tekinstruments, EL312e, Winooski, Vt.) as described (20). The cytochrome c was purchased from Sigma (St. Louis, Mo.). The human monocytes (9×10^5 cells/100 □ of RPMI 1640 medium per well of a 96-well plate) were preincubated with 50 μM cytochrome c at 37° C. for 1 minute and then incubated with the indicated concentrations of peptide pools (final 0.5 nM per peptide sequence for the initial screening). The superoxide generation was measured as change in light absorption at 550 nm over 5 minutes at 1 minute intervals. From at least four independent experiments, peptides with active amino acids at each position were chosen. Superoxide generation by the identified peptides was measured by the same method. Spurious reduction of cytochrome c was ruled out by checking that the peptides-induced ones were superoxide dismutase-inhibitable in all experiments.
A test where the three peptides on HL60 cells that had differentiated into granulocytes after having been cultured in the presence of 1.25% DMSO for 4 days was performed. HL60 cells were cultured in RPMI medium containing 20% FCS. […] The peak level of the [Ca^2+]i increase was recorded. […]

[4] = tested on: human neutrophils; experiment: [Ca2+]i increase in human neutrophils (fura-2); assay type: cell-based; settings: FIG. 4A; 1 μM peptide
Method: as §1, §2

[5] = tested on: 3T3L1 (preadipocyte); experiment: [Ca2+]i rise in 3T3L1 cells (fura-2); assay type: cell-based; settings: FIG. 4A; 20 μM peptide
Method: as §1, §2

[6] = tested on: fura-2-loaded differentiated HL60 cells; experiment: Cross-desensitization of [Ca2+]i increase between fMLF and the peptides; assay type: cell-based, human; settings: HFYLPm 1 μM, HFYLPM and MFYLPM 10 μM
Method: as §1
Among various agonists, fMLF is known to cause superoxide production and [Ca^2+]i increase in phagocytic cells by binding to its specific receptor (7). To check whether the novel peptides can cross-desensitize the signaling by fMLF, the effect of fMLF on the novel peptides-induced [Ca^2+]i increase and vice versa was examined. […] The results of FIG. 6 shown are from one experiment that is representative of at least three independent experiments.
In FIG. 6, “Hm” means HFYLPm, “HM” means HFYLPM, and “MM” means MFYLPM. The concentrations used were 1 μM (HFYLPm and fMLF) and 10 μM (HFYLPM and MFYLPM). 340 nm/380 mn ratios in fluorescence were monitored on fura-2-loaded differentiated HL60 cells before and during sequential addition of agonists at the times indicated by the arrows.

Q: What does the source list for “Met-Phe-Tyr-Leu-Pro-Met-CONH2 (MFYLPM-NH2)”?
A: [Ca2+]i rise in PC12 cells [1]: no response; cellular migration in human neutrophil [2]: induced cellular migration; superoxide generation in differentiated HL60 cells [3]: resulted in superoxide generation; [Ca2+]i increase in neutrophils [4]: increase their [Ca^2+]i; [Ca2+]i rise in 3T3L1 cells [5]: no response; desensitization to subsequent stimulation with the same peptide ([Ca2+]i) ([6]; FIG. 6): complete desensitization; block of the calcium response to a following saturating concentration of fMLF ([6]; FIG. 6 below, fMLF 1 μM): completely block; [Ca2+]i response to the peptide following a saturating concentration of fMLF ([6]; FIG. 6 upper, fMLF 1 μM): considerable responses
